Patent publication US11331271B2, “Buccal, sublingual and intranasal delivery of fospropofol” (The Johns Hopkins University, priority 2016, dated 2022)
Like-named read-outs stand apart in the source and are kept apart here.

How the values were obtained:
[1] = Human Study 1: absolute bioavailability, plasma pharmacokinetics of fospropofol and propofol; format: in vivo; details: for Tmax / bioavailability / half-life: male, human, plasma; for half-life: read-out: mean t1/2 of fospropofol (converted)
Description: (§1) In human study 1, fospropofol disodium was formulated as a sterile aqueous solution at a concentration of 20 mg/mL. Each vial provided contained 20 mL of solution, suitable for intravenous injection. Fospropofol was administered as a single dose of 400 mg orally, directly into the duodenum by gastroscopy or intravenously over 10 min. In human study 2, fospropofol disodium in capsules (200 mg) or matching placebo was administered orally.
The first study was an absolute bioavailability study of fospropofol conducted at a single center (PRA Health Sciences) in Groningen, Netherlands, as a three-way crossover study. The study enrolled 7 healthy male volunteers between 18 and 45 years of age inclusive, with a body mass index between 18 and 28 kg/m^2. Subjects stayed in the clinical unit for three consecutive periods of 3 days each, with a 3-day washout, between periods. For six subjects, the order of the administration routes was as follows—period 1: PO, period 2: ID, and period 3: IV. For one subject the order of the administration routes was the following—period 1: ID, period 2: IV and period 3: PO. In this study a single dose of 400 mg was administered by each route. Blinding and placebo control was impractical due to the requirement of unsedated endoscopic administration of fospropofol into the duodenum. Safety and overall pharmacodynamic effect was evaluated based on adverse events, vital signs, electrocardiogram (ECG), Modified Observer's Assessment of Alertness/Sedation (OAA/S) score, clinical laboratory tests, and physical examination.
In the first study, 6 mL blood samples were collected following the PO and ID fospropofol treatment periods at times of pre-dose, 5, 10, 20, 30, 45, 60, 90 min and 2, 4, 6 and 9 h post-dose and in the IV fospropofol treatment period at pre-dose and at 5, 10, 15, 20, 30, 45, 60 and 120 min post-dose. In the second study a 6 mL blood sample was collected following each fospropofol PO dose (200, 600, 1,000 and 1,200 mg) at pre-dose, 5, 10, 20, 30, 45, 60, 90 min and 2, 4, 6 and 9 h post-dose. The blood was collected in a sodium heparin vacutainer tube containing 60 mg SOV, inverted approximately eight times to dissolve SOV and placed on dry ice until it was centrifuged at 3,000 rpm for 10 min at 4° C. to harvest plasma. Plasma samples were then stored at −20° C. until analysis.
The parameters were summarized using descriptive statistics.

[2] = Human Study 2: single ascending oral dose, plasma pharmacokinetics; format: in vivo
Description: as §1
A second single ascending dose study was subsequently performed to assess the safety, tolerability, and pharmacokinetics of oral administration of fospropofol as a capsule. This was a double-blind, randomized, crossover, placebo-controlled, single ascending dose study. Ten healthy volunteers were enrolled, 6 males and 4 females between 18 and 45 years of age inclusive with a body mass index between 18 and 28 kg/m^2. Each subject received four ascending oral doses of fospropofol disodium (200, 600, 1,000 and 1,200 mg) and one of placebo. Placebo was administered randomly, in one of the five periods. Subjects stayed in the clinical research unit over 3 days per treatment for five consecutive treatments. […] Pharmacokinetic parameters, safety and pharmacodynamic effect were assessed in a manner similar to that in Study 1 described above. […]

[3] = Stability in rat plasma at −20° C.; format: in vitro ADME
Description: The SPE cartridges were conditioned by gravity with methanol and 1.0 M ammonium acetate solution in water. The plasma samples with internal standard were loaded on the cartridges, washed with water and 10% methanol/water and eluted with methanol. The tubes were then evaporated under nitrogen and the residues reconstituted with 50/50 methanol/25 mM ammonium acetate in deionized water. The sample extract was then injected onto a reversed phase HPLC Zorbax Eclipse XDB-C18 column. The separated analytes were detected using tandem mass spectrometry (MS/MS) detection. […] The assays were linear with correlation coefficient of (R^2)>0.99 over the range of 10-2,000 ng/mL for rat plasma and 5-1,000 ng/mL for human plasma.
In brief, 4-[tert-octyl] phenol, (internal standard) was added to the plasma samples (0.05 mL for rat or 0.2 mL for human) and extracted using a 3M Empore C-18-SD 4 mm SPE cartridge (Millipore, Billerica, Mass., USA). […] The final eluants (˜0.3 mL) were diluted with 0.3 mL of water, and injected onto an HPLC system equipped with a C-18 analytical column (5 μm, 150×3.9 mm) and fluorescence detector set at excitation and emission wave lengths of 275 and 310 nm, respectively. […] All rat and human study samples in this study were analyzed without exceeding the stability sample integrity during validation of the methods.

## CC(C)c1cccc(C(C)C)c1OCOP(=O)(O)O [fospropofol]
[1]; 400 mg ID vs IV
  fospropofol Cmax, fold lower than IV: ~534 fold
[1]; 400 mg PO or ID
  plasma fospropofol by non-intravenous routes: Almost no plasma fospropofol was detected
[1]; 400 mg PO vs IV
  fospropofol Cmax, fold lower than IV: approximately 88 fold
[1]; other: intraduodenal, 400 mg ID, read-out: Tmax of fospropofol
  Tmax: 10.2 min
[1]; other: intraduodenal, 400 mg ID, read-out: absolute bioavailability of fospropofol
  bioavailability: 0.1%
[1]; other: intraduodenal, 400 mg ID
  half-life: 16.8 min
[1]; 400 mg IV
  half-life: 16.8 min
[1]; 400 mg PO, read-out: Tmax of fospropofol
  Tmax: 4.8 min
[1]; 400 mg PO, read-out: absolute bioavailability of fospropofol
  bioavailability: 1%
[1]; 400 mg PO
  half-life: 19.2 min
[2]; PO capsules 200-1,200 mg
  fospropofol exposure vs dose: dose related increase
[3]
  time stable at −20° C. in rat plasma: 98 days

## CC(C)c1cccc(C(C)C)c1O [propofol, 2,6-diisopropylphenol]
[1]; fospropofol 400 mg ID
  bioavailability (F) of propofol based on AUC(0-∞): 37%
[1]; fospropofol 400 mg oral
  bioavailability (F) of propofol based on AUC(0-∞): 30%
[1]; other: intraduodenal, fospropofol 400 mg ID
  Tmax: 10.2 min
[1]; po, 400 mg, summary in discussion
  bioavailability: ≥ 30%
[1]; fospropofol 400 mg PO
  Tmax: 19.8 min
[2]; PO fospropofol capsules 200-1,200 mg
  propofol exposure vs dose: dose related increase
[3]
  time stable at −20° C. in rat plasma: 65 days
